Literature values, collected in article PMC12444507 (ACS Omega, 2025).

Tested on: nirmatrelvir-resistant E166 V-carrying SARS-CoV-2^E166V
Details: cited from earlier work

Structure (SMILES): CC(C)(C)[C@H](NC(=O)C(F)(F)F)C(=O)N1C[C@H]2[C@@H]([C@H]1C(=O)N[C@@H](C[C@@H]1CCNC1=O)C(=O)c1nc3cc(F)ccc3s1)C2(C)C [TKB272 (8)]
- antiviral activity against SARS-CoV-2^E166V: substantial antiviral activity
